Experimental data as given in patent publication US20260116845A1, “LIPIDS AND COMPOSITIONS THEREOF” (Kernal Biologics, Inc., priority 2023, published 2026).

How the values were obtained:
B16F10 Cell Line = assay: Transfection of B16F10 Cell Line with FLuc mRNA LNPs (ONE-Glo EX luciferase signal); format: cell-based; conditions: 200 ng Fluc mRNA-LNP, 24 hours
In short: (§1)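 Firefly luciferase luminescence measured 24 h after transfection with 200 ng mRNA-LNP per well in Opti-MEM. Seeding: 5,000 cells/well for B16F10 and MC38.K, 20,000 for AML12. LNPs were pre-incubated 30 min with mouse serum; mRNA content determined by RiboGreen.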

MC38.K Cell Line = assay: Transfection of MC38.K Cell Line with FLuc mRNA LNPs (ONE-Glo EX luciferase signal); format: cell-based; conditions: 200 ng Fluc mRNA-LNP, 24 hours; for Total Luciferin Signal (RLU) In Vitro - MC38.K: Table 4; for Total Luciferin Signal (RLU) In Vitro-MC38: Table 5
In short: as §1

Liver = assay: Ex-vivo luminescence signal from liver after IV Fluc mRNA LNPs in CD1 mice (IVIS); conditions: tail vein 1.0 mg/kg Day 0 and Day 2, imaging 18 hours after second dose; for Total Liver Tissue Luciferin Signal (Photons/s) Ex-vivo - CD1: Table 4; for Total Liver Tissue Luciferin Signal (Photons/s) In Vivo-Cd1: Table 5
AML12 Cell Line = assay: Transfection of AML12 Cell Line with FLuc mRNA LNPs (ONE-Glo EX luciferase signal); format: cell-based; conditions: 200 ng Fluc mRNA-LNP, 24 hours
In short: as §1

hepatocytes = assay: Comparative study of fluoro v. non-fluoro compounds: Firefly Luciferase transfection efficiency; format: cell-based; conditions: Firefly Luciferase expression in hepatocytes; pairs Compound 54 v. 58 and Compound 68 v. 67
Text: Transfection efficiency was compared between three pairs of compounds, Compound 54 v. Compound 58, Compound 68 v. Compound 67, and Compound 37 v. Compound 61. For each pair, the compounds only differ on one fluoro-substitution at the end of an alkyl chain. For example, the structures of Compound 54 and Compound 58 are shown below:
In vitro and in vivo comparison of Firefly Luciferase expression data of fluoro v. non-fluoro compounds were obtained according to procedure similar to those in Example 3 and Example 7. […] Compound 58 and Compound 68 v. Compound 67 in hepatocytes.

liver, tumor, and spleen = assay: Biodistribution of Fluc mRNA LNPs in MC38.K-inoculated Albino B6 mice (ex vivo luminescence); conditions: Albino B6 mice with MC38.K, 1.0 mg/kg IV, 18 hours
Protocol: Fluc mRNA LNPs were administered to Albino B6 mice, inoculated with MC38.K cells, via the tail vein at 1.0 mg/kg. Eighteen hours later, bioluminescence was measured using an IVIS Spectrum imager. Mice were treated with 150 mg/kg luciferin substrate administered via intraperitoneal injection. Afterwards, mice were euthanized, and the lung, liver, spleen, and tumor were harvested for ex vivo imaging. All procedures were conducted according to the approved IACUC guidelines. N=5 per group. Data analysis was performed in Graphpad Prism 10. Values are reported as mean+/−standard deviation, unless specified otherwise. Ex-Vivo luminescence of liver, tumor, and spleen organs after 1.0 mg/kg IV injection of Peripheral LNPs. N=4 mice per group. (Mean±SD, n=4/group).

Spleen = assay: Ex-vivo luminescence signal from spleen after IV Fluc mRNA LNPs in CD1 mice (IVIS); conditions: tail vein 1.0 mg/kg Day 0 and Day 2, imaging 18 hours after second dose, Table 5
C57BL/6 mice = assay: Multi-dose tolerability screening of NT-beta-Actin mRNA LNPs in MC38.K-inoculated C57BL/6 mice; format: in vivo; conditions: C57BL/6 mice with MC38.K, 1.0 mg/kg IV twice a week for two weeks; for adverse clinical observations / reduction in white blood cells and lymphocytes in the blood: compared to Compound 23 LNPs
Protocol: NT-beta-Actin mRNA LNPs with different ionizable lipids were administered IV to C57BL/6 mice, inoculated with MC38.K cells, via the tail vein for a total of four doses (twice a week for two consecutive weeks) at a concentration of 1.0 mg/kg. Bodyweights were monitored and blood was collected pre-dose, 24 hours post first dose, 24 hours post fourth dose, and analyzed for cytokines, blood chemistry, and liver/spleen weights. Compounds 23, 99 and 101 were formulated using a peripheral process method. C57BL/6 mice were inoculated with MC38.K cells. Once tumors had grown, 1.0 mg/kg (Beta-Actin mRNA) of each LNP was intravenously administered twice a week for two weeks. […] N=6 per group for bodyweights, N=3 for blood analysis. Mean+/−SD.

| SMILES | Total Luciferin Signal (RLU) In Vitro - B16F10 (B16F10 Cell Line; Table 4) | Total Luciferin Signal (RLU) In Vitro - MC38.K (MC38.K Cell Line) | Total Liver Tissue Luciferin Signal (Photons/s) Ex-vivo - CD1 (Liver) | Total Luciferin Signal (RLU) In Vitro - AML12 (AML12 Cell Line; Table 4) | difference in transfection efficiency within fluoro v. non-fluoro pair (hepatocytes) | Total Luciferin Signal (RLU) In Vitro - B16F10 (B16F10 Cell Line; Table 5) | Total Luciferin Signal (RLU) In Vitro-MC38 (MC38.K Cell Line) | Total Liver Tissue Luciferin Signal (Photons/s) In Vivo-Cd1 (Liver) | expression in liver and spleen (ex-vivo luminescence) (liver, tumor, and spleen) | expression in solid tumor tissue (ex-vivo luminescence) (liver, tumor, and spleen) | Total Luciferin Signal (RLU) In Vitro - AML12 (AML12 Cell Line; Table 5) | Total Spleen Tissue Luciferin Signal (Photons/s) In Vivo-Cd1 (Spleen) | tolerability (C57BL/6 mice) | adverse clinical observations (C57BL/6 mice) | reduction in white blood cells and lymphocytes in the blood (C57BL/6 mice) |
| --- | --- | --- | --- | --- | --- | --- | --- | --- | --- | --- | --- | --- | --- | --- | --- |
| CCCCCCCCC(CCCCCCCC)OC(=O)CCCCCCCN(CCO)CCCCCCCOC(=O)CCCCCCCC=C(C)C [Compound 54, 7-((8-(heptadecan-9-yloxy)-8-oxooctyl)(2-hydroxyethyl)amino)heptyl 10-methylundec-9-enoate] | 7.25E+05 RLU | 5.12E+06 RLU | 8.29E+09 Photons/s | 1.05E+06 RLU | Statistically significant difference in transfection efficiency | – | – | – | – | – | – | – | – | – | – |
| CCCCCCCCC(CCCCCCCCF)OC(=O)CCCCCCCN(CCO)CCCCCCCC(=O)OCCCCCCCC=C(C)C (centres unmarked) [Compound 58, 1-fluoroheptadecan-9-yl 8-((2-hydroxyethyl)(8-((9-methyldec-8-en-1-yl)oxy)-8-oxooctyl)amino)octanoate] | 4.03E+05 RLU | 4.80E+06 RLU | 9.65E+09 Photons/s | 2.18E+06 RLU | Statistically significant difference in transfection efficiency | – | – | – | – | – | – | – | – | – | – |
| CCCCCCCC/C=C\CCCCCCC1CN(CCOC(=O)CCN(C)C)CC(CCCCCC(=O)OC(CCCCCCCC)CCCCCCC(C)C)O1 (centres unmarked) [Compound 99, 2-methylheptadecan-9-yl (Z)-6-(4-(2-((3-(dimethylamino)propanoyl)oxy)ethyl)-6-(hexadec-7-en-1-yl)morpholin-2-yl)hexanoate] | – | – | – | – | – | 5.27E+05 RLU | 7.66E+04 RLU | 1.81E+09 Photons/s | significantly less expression | nearly equivalent expression | 1.00E+05 RLU | 2.78E+07 Photons/s | improved tolerability | less adverse clinical observations | less of a reduction in white blood cells and lymphocytes |
| CCCCCCCC/C=C\CCCCCCC1CN(CCOC(=O)CCCN(C)C)CC(CCCCCC/C=C\CCCCCCCC)O1 (centres unmarked) [Compound 93, 2-{2,6-bis[(Z)-7-hexadecenyl]-4-morpholinyl}ethyl 4-(dimethylamino)butyrate] | – | – | – | – | – | 4.80E+05 RLU | 3.69E+05 RLU | 1.72E+06 Photons/s | – | – | 3.05E+07 RLU | 2.48E+06 Photons/s | – | – | – |
| CCCCCCCCC(CCCCCCCC)OC(=O)CCCCCCCN(CCCCO)CCCCCCC(C)C(=O)OCCCCCCCCC(C)C (centres unmarked) [Compound 68, 9-methyldecyl 8-((8-(heptadecan-9-yloxy)-8-oxooctyl)(4-hydroxybutyl)amino)-2-methyloctanoate] | 2.83E+06 RLU | 1.60E+07 RLU | 1.06E+10 Photons/s | 2.89E+06 RLU | Statistically significant difference in transfection efficiency | – | – | – | – | – | – | – | – | – | – |
| CCCCCCCCCOC(=O)CCCCCC1CN(CCOC(=O)CCN(C)C)CC(CCCCCC(=O)OC(CCCCCCCC)CCCCCCCC)O1 (centres unmarked) [Compound 101, heptadecan-9-yl 6-(4-(2-((3-(dimethylamino)propanoyl)oxy)ethyl)-6-(6-(nonyloxy)-6-oxohexyl)morpholin-2-yl)hexanoate] | – | – | – | – | – | 6.73E+04 RLU | 6.90E+05 RLU | 6.70E+08 Photons/s | – | – | 9.36E+04 RLU | 1.57E+08 Photons/s | improved tolerability | less adverse clinical observations | less of a reduction in white blood cells and lymphocytes |
| CCCCCCCCC(CCCCCCCCF)OC(=O)CCCCCCCN(CCCCO)CCCCCCC(C)C(=O)OCCCCCCCCC(C)C (centres unmarked) [Compound 67, 9-methyldecyl 8-((8-((1-fluoroheptadecan-9-yl)oxy)-8-oxooctyl)(4-hydroxybutyl)amino)-2-methyloctanoate] | 2.75E+06 RLU | 3.24E+07 RLU | 5.31E+09 Photons/s | 4.35E+06 RLU | Statistically significant difference in transfection efficiency | – | – | – | – | – | – | – | – | – | – |
| CCCCCCCC/C=C\CCCCCCC1CN(CCOC(=O)CCN(C)C)CC(CCCCCC/C=C\CCCCCCCC)O1 (centres unmarked) [Compound 95, 2-(2,6-di((Z)-hexadec-7-en-1-yl)morpholino)ethyl 3-(dimethylamino)propanoate] | – | – | – | – | – | 2.09E+05 RLU | 7.12E+04 RLU | 2.92E+06 Photons/s | – | – | 1.49E+05 RLU | 2.69E+06 Photons/s | – | – | – |
| CCCCCCCC/C=C\CCCCCCC1CN(CCOC(=O)CCN(C)C)CC(CCCCCC(=O)OC(CCCCCCCC)CCCCCCCC)O1 (centres unmarked) [Compound 97, heptadecan-9-yl (Z)-6-(4-(2-((3-(dimethylamino)propanoyl)oxy)ethyl)-6-(hexadec-7-en-1-yl)morpholin-2-yl)hexanoate] | – | – | – | – | – | 2.98E+06 RLU | 6.42E+05 RLU | 2.08E+08 Photons/s | – | – | 2.58E+05 RLU | 1.60E+07 Photons/s | – | – | – |
